Measurements: US20140239525A1, “INHALABLE PHARMACEUTICAL COMPOSITIONS” (BOARD OF REGENTS, UNIVERSITY OF TEXAS SYSTEM, priority 2011, published 2014)
Where two headings read alike, the source gives them in different places.

Columns and labels:
[1] = Particle size distribution by laser diffraction (LD); assay type: physicochemical
Description: Laser Diffraction (LD): Bulk CoQ10 powder was dispersed in 20% (v/v) 1,3-propanediol in deionized water for analysis of particle size distribution. This dispersed sample was then added to a small cell apparatus in a Malvern Mastersizer S® instrument (Malvern Instruments, Worcestershire, UK) equipped with a 300 mm lens until 5-10% obscuration was attained. The internal phase and dispersant refractive indexes were 1.45 and 1.33, respectively.
(§1) Particle Size Distribution: Particle size distribution testing of the dispersed formulations was performed with LD using a wet sample dispersion unit stirring at 1,000 rpm coupled to a Malvern Spraytec® (Malvern Instruments, Worcestershire, UK) equipped with a 300 mm lens. The dispersed formulations were added to distilled water (dispersant) until approximately 5% laser obscuration was attained. The internal phase and dispersant refractive indexes were set as 1.45 and 1.33, respectively. A timed measurement was performed for 45 seconds with 1 second sampling periods (a total of 45 measurements). Results are presented as Dv(X) and span, where X is the cumulative percentile of particles under the referred size (e.g. Dv(50) corresponds to the median volume of the particles). Span is a measurement of particle size distribution calculated as [Dv(90)-Dv(10)]/Dv(50)]. A higher span indicates a more polydisperse particle size distribution.
as §1, with “5%” for “5% laser”, “were” for “were set as”, “45 data acquisition periods).” for “45 measurements).”, “is the” for “is a”, “as [Dv(90)−Dv(10)]/Dv(50)].” for “as [Dv(90)-Dv(10)]/Dv(50)].”

[2] = tested on: mice; assay: Survival and health of mice after aerosol dosing; assay type: in vivo; conditions: 48 hours after the end of the nebulization event
Description: Pulmonary Delivery to Mice: Animals were caged in groups of 4 and maintained on a normal rodent chow diet with free access to water. Prior to dosing, CD-1@ IGS ICR mice (Charles River Laboratories International, Inc., Wilmington, Mass., USA) were individually acclimatized for approximately 10 minutes per day for 3 days into restraint tubes, restricted by an anterior nose insert and a posterior holder. The dosing apparatus was placed inside a fume hood to collect escaping aerosol containing drug. To avoid influence from the airflow provided by the fume hood, an erlenmeyer container was placed at the end of the tubing system as a buffer. The airflow rate was set to 1 L/min to ensure proper drug aerosolization into the nose-only chamber (internal volume: 230 mL; diameter: 3.8 cm; length: 20.3 cm) using an Aeroneb Pro® vibrating-mesh nebulizer (Aerogen, Galway, Ireland). Following preparation, all formulations (saline control, DMPC, DPPC, and DSPC) were dosed for 15 minutes to mice weighing from 23 to 33 g each, at time of dosing. Each single-dose studied group consisted of thirty-six male animals. At each time point (0.5, 1, 3, 8, 24, and 48 hours after the end of the aerosolization event) six animals randomly selected from different dosing events of the same formulation were sacrificed by narcosis with carbon dioxide. […]

[3] = CoQ10 in lung tissue of mice after 15 min nose-only aerosol dosing; assay type: in vivo
Description: Pulmonary Delivery to Mice: Animals were caged in groups of 4 and maintained on a normal rodent chow diet with free access to water. Prior to dosing, CD-1@ IGS ICR mice (Charles River Laboratories International, Inc., Wilmington, Mass., USA) were individually acclimatized for approximately 10 minutes per day for 3 days into restraint tubes, restricted by an anterior nose insert and a posterior holder. The dosing apparatus was placed inside a fume hood to collect escaping aerosol containing drug. To avoid influence from the airflow provided by the fume hood, an erlenmeyer container was placed at the end of the tubing system as a buffer. The airflow rate was set to 1 L/min to ensure proper drug aerosolization into the nose-only chamber (internal volume: 230 mL; diameter: 3.8 cm; length: 20.3 cm) using an Aeroneb Pro® vibrating-mesh nebulizer (Aerogen, Galway, Ireland). Following preparation, all formulations (saline control, DMPC, DPPC, and DSPC) were dosed for 15 minutes to mice weighing from 23 to 33 g each, at time of dosing. Each single-dose studied group consisted of thirty-six male animals. At each time point (0.5, 1, 3, 8, 24, and 48 hours after the end of the aerosolization event) six animals randomly selected from different dosing events of the same formulation were sacrificed by narcosis with carbon dioxide. As part of the collection process, blood was withdrawn by cardiac puncture, lungs were harvested, and a nasal wash was performed. The samples were extracted for analysis with liquid chromatography coupled with tandem mass spectrometry (LC/MS/MS).
Analysis of CoQ10 Levels in Lung Tissue, Blood Plasma, and Nasal Cavity: For each experiment, CoQ10 levels were determined after liquid extraction using liquid chromatography coupled with tandem mass spectrometry (LC-MS/MS). The methods were validated in the drug concentration range of 0.1 to 600 μg/mL. The general sample preparation protocols for lung tissue, blood plasma, and nasal cavity analysis are described below. […]

[4] = solubilized oral formulations, cited from earlier work
[5] = tested on: IL-12; assay: Inflammatory response: IL-12 in bronchoalveolar lavage supernatant by ELISA; assay type: in vivo, mice
Description: The inflammatory response to the administration of hydrophobic bioactive agents (e.g., as discussed in connection with Example 1-3 above) was measured. Surgery is performed on sacrificed mice to expose the pleural cavity and trachea at the throat. […] An aliquot (about 0.75 mL) of phosphate buffered saline is instilled through the cannula into the lungs and removed to wash the bronchial and alveolar surfaces. This process is repeated for a total of three washes. The phosphate buffered saline containing cells is placed into centrifuge vials and centrifuged at about 3000 rpm (MiniSpin Plus, Eppendorf International, Hamburg, Del.). The supernatant is removed leaving the collected cells in the pellet. The supernatant from the BAL (Bronchoalveolar Lavage) is analyzed by enzyme-linked immunosorbent assay (ELISA) for IL-12 elevation (n=2 per sample tested).

[6] = after ball milling for 18 hours
[7] = previous studies, same nebulizer

With COC1=C(OC)C(=O)C(C/C=C(\C)CC/C=C(\C)CC/C=C(\C)CC/C=C(\C)CC/C=C(\C)CC/C=C(\C)CC/C=C(\C)CC/C=C(\C)CC/C=C(\C)CCC=C(C)C)=C(C)C1=O [CoQ10, Coenzyme Q10] the “Dv(50)” value [1, 6] was 29.87 μm, the span [1, 6] was 2.282 and the particle size ([1]; bulk CoQ10 powder) was 30 μm. The “Dv(50)” value ([1]; bulk material) was 29.87 μm, the span ([1]; bulk material) was 2.051 and the “survival and health signs” value [2] was “all mice were alive and presenting healthy signs”. For the same compound, the “time CoQ10 stays in the lungs at relatively high concentrations” value ([3]; mice, after 15 min aerosol) was “up to 48 hours”, the “Cmax relative to dispersions of cyclosporine A” value [3, 7] was ≤ 75 fold and the “Cmax relative to dispersions of itraconazole” value [3, 7] was ≤ 165 fold. The “highest plasma concentration of CoQ10 reported in the literature” value ([4]; approximate conversion) was “approximately 9 μg/mL”, the “highest plasma concentration of CoQ10 reported in the literature” value [4] was 10.7 µmol/L and the “IL-12 levels in BAL supernatant” value ([5]; ELISA) was “not associated with a rise in IL-12 levels”. The lung inflammation ([5]; mouse, in vivo) was “does not cause lung inflammation”.
